For one series, the system named is RSV A2. Nature of the series: RSV plaque reduction assay. The series is classed as cell-based, RSV (RSV A2 ECACC, 0709161v). Conditions: human respiratory syncytial virus, HepG2, 48 h, Hep-G2 cells, RSV A2, 2 days; mean of at least two experiments. Here is the method:
Compounds were subjected to RSV plaque reduction assays according to the following protocol.
Hep-G2 cells (ECACC, 85011430) were passaged in flasks and seeded in 24-well plates in DMEM containing antibiotics and supplemented with 10% FBS. During inoculation and subsequent incubation, cells were cultured in DMEM containing 2% FBS. 100 plaque forming unit/well of RSV (RSV A2 ECACC, 0709161v) was mixed with eight serial dilutions of compound. Subsequently, 100 µL of the virus/compound mixtures was added to confluent Hep-G2 cell monolayers. The cells and virus/compound mixtures were incubated at 37° C. in a humidified 5% CO2 incubator for 2 h prior to removal of the inoculum and addition of 1 mL of overlay (DMEM containing 2% FBS and 0.8% CMC) containing compound dilutions. The cells and were incubated at 37° C. in a humidified 5% CO2 incubator for 2 days.
Cells were washed with PBS before adding 75%/25% v/v EtOH/MeOH, for 3 min. Fix ative was removed and plates were washed with PBS. A pre-titrated amount of the primary antibody was added in 200 µL PBS/2% milk powder, and plates incubated for 90 min at 37° C. The plates were washed 3 times with PBS/0.05% Tween20 before addition of rabbit anti-goat horse radish peroxidase in 200 µL PBS/2% milk powder, and incubated for 1 h at 37° C. Following three wash steps with PBS/0.05% Tween20, 200 µL ready-to-use TrueBlue was added and plates were incubated at rt for 10-15 min before washing with water. After removal of water, plates were air-dried in the dark.
(§1) Plates were scanned and analysed using the Immunospot S6 Macro analyser, which is equipped with BioSpot analysis software for counting immunostained plaques (virospots). Plaque counts were used to calculate % infection relative to the mean of the plaque count in the virus control wells for RSV. […] Plaque EC50 and cell toxicity CC50 values are a mean of at least two experiments and figures are rounded to whole units.

A further series is described as follows: Cell cytotoxicity CC50. As to conditions: human; mean of at least two experiments. The series is classed as cell-based.
From the text: as §1

Each structure is given as a SMILES string. A value given as a limit tells only on which side of the number the result lay.

Turning to `CC(C)Nc1ccc(-c2nn3c(c2C(=O)N[C@H]2N=C(c4ccccc4)c4cccc(F)c4NC2=O)O[C@@H]2CC[C@H]3C2)cn1` (single isomer, unassigned) [Example 31-1, (1S*,8R*)-N-[(3S)-9-fluoro-2-oxo-5-phenyl-2,3-dihydro-1H-1,4-benzodiazepin-3-yl]-4-{6-[(propan-2-yl)amino]pyridin-3-yl}-7-oxa-2,3-diazatricyclo[6.2.1.02,6]undeca-3,5-diene-5-carboxamide], a half-maximal effect in the series on RSV A2 (EC50) was put at 0.063 µM. The molecule also yielded a CC50 in “Cell cytotoxicity CC50” of more than 25 µM.
For `CC(C)Nc1ccc(-c2nn3c(c2C(=O)N[C@H]2N=C(c4ccccc4)c4cccc(F)c4NC2=O)O[C@H]2CC[C@@H]3C2)cn1` (single isomer, unassigned) [Example 31-2, (1R*,8S*)-N-[(3S)-9-fluoro-2-oxo-5-phenyl-2,3-dihydro-1H-1,4-benzodiazepin-3-yl]-4-{6-[(propan-2-yl)amino]pyridin-3-yl}-7-oxa-2,3-diazatricyclo[6.2.1.02,6]undeca-3,5-diene-5-carboxamide] the same measures were 0.094 µM and more than 25 µM.
Taken in the same sequence, the figures for `O=C(NC1N=C(c2ccccc2)c2cccc(F)c2NC1=O)c1c(-c2ccccc2F)nn2c1OCC(N1CCOCC1)CC2` (stereo in doubt) [Example 29, 2-(2-Fluorophenyl)-6-morpholin-4-yl-N-[(3R)-9-fluoro-2-oxo-5-phenyl-1,3-dihydro-1,4-benzodiazepin-3-yl]-5,6,7,8-tetrahydropyrazolo[5,1-b][1,3]oxazepine-3-carboxamide] were 0.154 µM and more than 25 µM.
Taken in the same sequence, the figures for `O=C(N[C@H]1N=C(c2ccccc2)c2ccccc2NC1=O)c1c(-c2ccccc2)nn2c1OCCCC2` [Example 1, N-[(3S)-2-oxo-5-phenyl-1,3-dihydro-1,4-benzodiazepin-3-yl]-2-phenyl-5,6,7,8-tetrahydropyrazolo[5,1-b][1,3]oxazepine-3-carboxamide] were 0.079 µM and more than 25 µM.
`Cc1cncc(-c2nn3c(c2C(=O)N[C@H]2N=C(c4ccccc4)c4ccccc4NC2=O)OCCCC3)c1` [Example 3, 2-(5-Methylpyridin-3-yl)-N-[(3S)-2-oxo-5-phenyl-1,3-dihydro-1,4-benzodiazepin-3-yl]-5,6,7,8-tetrahydropyrazolo[5,1-b][1,3]oxazepine-3-carboxamide]: the midpoint of the response in the series with RSV A2, the EC50, lay at 0.256 µM. For the same molecule, in the series “Cell cytotoxicity CC50”, the CC50 is more than 25 µM.
For `Cc1cncc(-c2nn3c(c2C(=O)N[C@H]2N=C(c4ccccc4)c4cccc(F)c4NC2=O)OCCCC3)c1` [Example 4, N-[(3S)-9-Fluoro-2-oxo-5-phenyl-1,3-dihydro-1,4-benzodiazepin-3-yl]-2-(5-methylpyridin-3-yl)-5,6,7,8-tetrahydropyrazolo[5,1-b][1,3]oxazepine-3-carboxamide] the same measures were 0.219 µM and more than 25 µM.
The molecule `CC1(C)CCCn2nc(-c3ccccc3F)c(C(=O)N[C@H]3N=C(c4ccccc4)c4ccccc4NC3=O)c2O1` [Example 5, 2-(2-Fluorophenyl)-5,5-dimethyl-N-[(3S)-2-oxo-5-phenyl-1,3-dihydro-1,4-benzodiazepin-3-yl]-7,8-dihydro-6H-pyrazolo[5,1-b][1,3]oxazepine-3-carboxamide] yielded an EC50 with RSV A2 of 0.091 µM. For the same molecule, the CC50 in the series “Cell cytotoxicity CC50” is more than 25 µM.
Molecule `CC1(C)CCCn2nc(-c3ccccc3F)c(C(=O)N[C@H]3N=C(c4ccccc4)c4cccc(F)c4NC3=O)c2O1` [Example 6, N-[(3S)-9-Fluoro-2-oxo-5-phenyl-1,3-dihydro-1,4-benzodiazepin-3-yl]-2-(2-fluorophenyl)-5,5-dimethyl-7,8-dihydro-6H-pyrazolo[5,1-b][1,3]oxazepine-3-carboxamide] came in with an EC50 in the series on RSV A2 of 0.078 µM. In the series “Cell cytotoxicity CC50”, this molecule had a 50% cytotoxic concentration (CC50) of more than 25 µM.
For `O=C(N[C@H]1N=C(c2ccccc2)c2ccccc2NC1=O)c1c(-c2ccccc2F)nn2c1OCCCC2` [Example 7, 2-(2-Fluorophenyl)-N-[(3S)-2-oxo-5-phenyl-1,3-dihydro-1,4-benzodiazepin-3-yl]-5,6,7,8-tetrahydropyrazolo[5,1-b][1,3]oxazepine-3-carboxamide] the same measures were 0.052 µM and more than 25 µM.
For `O=C(N[C@H]1N=C(c2ccccc2)c2cccc(F)c2NC1=O)c1c(-c2ccccc2)nn2c1OCCCC2` [Example 8, N-[(3S)-9-Fluoro-2-oxo-5-phenyl-1,3-dihydro-1,4-benzodiazepin-3-yl]-2-phenyl-5,6,7,8-tetrahydropyrazolo[5,1-b][1,3]oxazepine-3-carboxamide] the same measures were 0.059 µM and more than 16.7 µM.
For `O=C(N[C@H]1N=C(c2ccccc2)c2ccccc2NC1=O)c1c(-c2ccc(NC3CC3)nc2F)nn2c1OCCCC2` [Example 9, 2-[6-(Cyclopropylamino)-2-fluoropyridin-3-yl]-N-[(3S)-2-oxo-5-phenyl-1,3-dihydro-1,4-benzodiazepin-3-yl]-5,6,7,8-tetrahydropyrazolo[5,1-b][1,3]oxazepine-3-carboxamide] the same measures were 0.024 µM and more than 25 µM.
In turn, `CCNc1ccc(-c2nn3c(c2C(=O)N[C@H]2N=C(c4ccccc4)c4ccccc4NC2=O)OC(C)CCC3)c(F)n1` (stereo partly drawn) [Example 10, 2-[6-(Ethylamino)-2-fluoropyridin-3-yl]-5-methyl-N-[(3S)-2-oxo-5-phenyl-1,3-dihydro-1,4-benzodiazepin-3-yl]-5,6,7,8-tetrahydropyrazolo[5,1-b][1,3]oxazepine-3-carboxamide] displayed an EC50 in the series with RSV A2 of 0.031 µM. The CC50 in the series “Cell cytotoxicity CC50” is more than 25 µM.
`CCNc1ccc(-c2nn3c(c2C(=O)N[C@H]2N=C(c4ccccc4)c4cccc(F)c4NC2=O)OC(C)CCC3)c(F)n1` (stereo partly drawn) [Example 11, 2-[6-(Ethylamino)-2-fluoropyridin-3-yl]-N-[(3S)-9-fluoro-2-oxo-5-phenyl-1,3-dihydro-1,4-benzodiazepin-3-yl]-5-methyl-5,6,7,8-tetrahydropyrazolo[5,1-b][1,3]oxazepine-3-carboxamide] yielded an EC50 with RSV A2 of 0.018 µM. Further, the CC50 in the series “Cell cytotoxicity CC50” is more than 25 µM.
For `CC(C)Nc1ccc(-c2nn3c(c2C(=O)N[C@H]2N=C(c4ccccc4)c4ccccc4NC2=O)OC(C)CCC3)c(F)n1` (stereo partly drawn) [Example 12, 2-[2-Fluoro-6-(propan-2-ylamino)pyridin-3-yl]-5-methyl-N-[(3S)-2-oxo-5-phenyl-1,3-dihydro-1,4-benzodiazepin-3-yl]-5,6,7,8-tetrahydropyrazolo[5,1-b][1,3]oxazepine-3-carboxamide] the same measures were 0.034 µM and more than 25 µM.
Taken in the same sequence, the figures for `CC(C)Nc1ccc(-c2nn3c(c2C(=O)N[C@H]2N=C(c4ccccc4)c4cccc(F)c4NC2=O)OC(C)CCC3)c(F)n1` (stereo partly drawn) [Example 13, N-[(3S)-9-fluoro-2-oxo-5-phenyl-1,3-dihydro-1,4-benzodiazepin-3-yl]-2-[2-fluoro-6-(propan-2-ylamino)pyridin-3-yl]-5-methyl-5,6,7,8-tetrahydropyrazolo[5,1-b][1,3]oxazepine-3-carboxamide] were 0.034 µM and more than 25 µM.
Taken in the same sequence, the figures for `CC1CCCOc2c(C(=O)N[C@H]3N=C(c4ccccc4)c4ccccc4NC3=O)c(-c3ccccc3F)nn21` (stereo partly drawn) [Example 14, 2-(2-Fluorophenyl)-8-methyl-N-[(3S)-2-oxo-5-phenyl-1,3-dihydro-1,4-benzodiazepin-3-yl]-5,6,7,8-tetrahydropyrazolo[5,1-b][1,3]oxazepine-3-carboxamide] were 0.067 µM and more than 25 µM.
As to `CC1CCCOc2c(C(=O)N[C@H]3N=C(c4ccccc4)c4cccc(F)c4NC3=O)c(-c3ccccc3F)nn21` (stereo partly drawn) [Example 15, N-[(3S)-9-fluoro-2-oxo-5-phenyl-1,3-dihydro-1,4-benzodiazepin-3-yl]-2-(2-fluorophenyl)-8-methyl-5,6,7,8-tetrahydropyrazolo[5,1-b][1,3]oxazepine-3-carboxamide], the EC50 in the series with RSV A2 amounted to 0.064 µM. In the series “Cell cytotoxicity CC50”, this molecule showed a CC50 of more than 25 µM.
Taken in the same sequence, the figures for `CC1CCCn2nc(-c3ccc(F)cc3F)c(C(=O)N[C@H]3N=C(c4ccccc4)c4cccc(F)c4NC3=O)c2O1` (stereo partly drawn) [Example 17, 2-(2,4-Difluorophenyl)-N-[(3S)-9-fluoro-2-oxo-5-phenyl-1,3-dihydro-1,4-benzodiazepin-3-yl]-5-methyl-5,6,7,8-tetrahydropyrazolo[5,1-b][1,3]oxazepine-3-carboxamide] were 0.027 µM and more than 25 µM.
Taken in the same sequence, the figures for `CC1CCCn2nc(-c3ccccc3F)c(C(=O)N[C@H]3N=C(c4ccccc4)c4ccccc4NC3=O)c2O1` (stereo partly drawn) [Example 18, 2-(2-Fluorophenyl)-5-methyl-N-[(3S)-2-oxo-5-phenyl-1,3-dihydro-1,4-benzodiazepin-3-yl]-5,6,7,8-tetrahydropyrazolo[5,1-b][1,3]oxazepine-3-carboxamide] were 0.037 µM and more than 25 µM.

These data come from patent publication US20230365585A1, “BENZODIAZEPINE DERIVATIVES USEFUL IN TREATING A RESPIRATORY SYNCYTIAL VIRUS INFECTION” (priority 2020, published 2023).
